What all share (type): physicochemical
Data set [1] in a line: Crystal form stability on stirring in or exposure to water, aqueous ethanol or other solvent. The note with it: for crystal form stability in water: in water or other water containing system(s); for crystal form stability when stirred: stirred in water or aqueous ethanol solution at room temperature or high temperature (40° C.).
A short description of data set [2]: Crystal form stability in oral suspension (XRPD). The note with it: oral suspension; XRPD. The method, then: The preparation of the oral suspension containing the crystal forms of the present invention.
API (selected from Crystal Form VI of Dabrafenib of the present invention): 2 g;
Blend API (selected from Crystal Form VI of Dabrafenib of the present invention), cocklebur gum, sodium dihydrogen citrate, methylparaben, syrupus simplex and orange flavor, add water to 1,000 mL and stir the mixture uniformly. After that, divide the solution into 100 bottles with 20 mg API in each bottle.

A short description of data set [3]: Polarized light microscopy (PLM) morphology. The text has this:
Polarized Light Microscope (PLM) plots are collected from XP-500E polarized light microscope (by Shanghai Changfang Optical Instrument Co., Ltd). Place a small amount of powder sample on a slide glass, drip some mineral oil to disperse the powder sample, place the cover slip, then place the sample on the loading table of XP-500E polarized light microscope, choose the appropriate magnitude to observe the morphology of the sample and take pictures thereof.
(§1) The morphology comparison is obtained by PLM testing of particle shape and PSD testing of particle size.

A short description of data set [4]: Crystal form stability in capsules prepared by wet granulation (XRPD). The note with it: capsules prepared by wet granulation process; XRPD. The text has this: The preparation of the capsules containing the crystal forms of the present invention.
3) Blend API (selected from the Known Crystal Form 1, the Known Crystal Form 2 and Crystal Form VI of the present invention), microcrystalline cellulose (avicel) and sodium carboxymethyl starch (SSG) uniformly.
4) Make the above mixture into soft materials by using an appropriate amount of 50% aqueous ethanol solution, then screen to produce the wet granules.
5) Dry the wet granules, grind and disperse uniformly and then transfer them into the capsules.

Data set [5] can be described thus: Dynamic vapor sorption (DVS) hygroscopicity. The note with it: from DVS, 20~80% RH. The method, then:
The dynamic vapor sorption analysis (DVS) data are collected by TA Instruments Q5000 TGA; the instrument control software is Thermal Advantage and the analysis software is Universal Analysis. Generally, take 1˜10 mg of the sample and place it in a platinum pan, and the weight changes of the sample are recorded during the course of the relative humidity changing from 0% to 80% and then to 0%. According to the specifics of the samples, different adsorption and desorption steps may be used.
The hygroscopicity is obtained by DVS testing of the weight changes between 20%-80% RH.

Data set [6] can be described thus: Competition test (suspension of equal amounts stirred overnight, XRPD). Particulars: for Competition test, comparison of stability (position in the rank order): in pure water, room temperature, stirred overnight. The text has this: The competition test is: take equal amount of the samples, and respectively place them in isopropanol or in a mixture of water (pure water) and ethanol (wherein the volume percentage of ethanol is 0%, 20%, 50%, 80% and 100%, respectively) to form a suspension, stir it overnight at room temperature, then compare their XRPDs.

Data set [7] can be described thus: Crystal form stability during wet granulation tablet preparation (XRPD). The note with it: for crystal form of API after physical blending with excipients: XRPD of Sample 1 vs Sample 3, lactose, microcrystalline cellulose, polyethylene glycol 6000; for crystal form of API in the wet granulation process: XRPD of Sample 2 vs Sample 1, 50% aqueous ethanol solution. From the text:
The Known Crystal Form 1, the Known Crystal Form 2 and Crystal Form VI of the present invention are examined for their stability during the formulation preparation of the wet granulation process.
The preparation process of the tablet is a parallel experiment.
(1) Blend API (selected from the Known Crystal Form 1, the Known Crystal Form 2 or Crystal Form VI of the present invention), lactose (monohydrate) and microcrystalline cellulose uniformly.
(2) Make the above mixture into soft materials by using an appropriate amount of 50% aqueous ethanol solution, screen to produce the wet granules and then dry the wet granules.
(3) Granulate the dried sample, blend with polyethylene glycol 6000 uniformly and then compress into tablets.
Respectively, take XRPD tests on the following samples obtained in the formulation preparing process of the Known Crystal Form 1, the Known Crystal Form 2 and Crystal Form VI of the present invention: (Sample 1) the sample obtained by physically blending API, lactose, microcrystalline cellulose with polyethylene glycol 6000 according to the preparation formula; (Sample 2) the sample obtained by granulating with API, lactose, microcrystalline cellulose and polyethylene glycol 6000 according to the “wet granulation” process (excluding the sample obtained after the Step (3)); (Sample 3) excluding API, the sample obtained by physically blending lactose, microcrystalline cellulose with polyethylene glycol 6000 according to the preparation formula.

Data set [8] is described as follows: Particle size distribution (PSD), laser diffraction.
From the text: The particle size distribution (PSD) plot is obtained using Microtrac S3500 laser diffraction particle size analyzer. The method parameters are as follows: flow velocity of the dispersant is 50%; the dispersant is water (added with 2% tween-80); the sample refractivity is 1.58; the laser source wavelength is 780 nm; and the integral mode is volume.
as §1

A short description of data set [9]: Flowability observed during the experiments.
Data set [10] is described as follows: Storage stability test (XRPD before and after storing). From the text:
The storage stability test is: storing the sample under constant conditions (i.e. constant humidity or constant temperature) for a certain time, and then comparing the XRPDs before and after storing.

A short description of data set [11]: Thermogravimetric analysis (TGA), thermal stability. The method, then: The thermogravimetric analysis (TGA) data are collected by TA Instruments Q500 TGA; the instrument control software is Thermal Advantage and the analysis software is Universal Analysis. Generally, take 5˜15 mg sample and place it in a platinum pan, adopt the segmental high-resolution testing mode, and under the protection of 50 mL/min dry N2, heat the sample from room temperature to 300° C. at the heating rate of 10° C./min, the weight changes of the sample during the course are recorded by TA software simultaneously.

Where [12] appears, read: dispersant water with 2% tween-80.

“Also recorded” adds a separate entry of the source. A value given as a limit tells only on which side of the number the result lay.

As for `CC(C)(C)c1nc(-c2cccc(NS(=O)(=O)c3c(F)cccc3F)c2F)c(-c2ccnc(N)n2)s1` [Known Crystal Form 1, N-{3-[5-(2-amino-4-pyrimidinyl)-2-(1,1-dimethylethyl)-1,3-thiazol-4-yl]-2-fluorophenyl}-2,6-difluorobenzenesulfonamide, reference compound], in data set [1], the “crystal form stability in water” value is “readily converts to other form(s)” and the “crystal form stability when stirred” value is recorded as “convert to Crystal Form VI of the present invention; also recorded: unstable”. Further, the “crystal form in oral suspension” value in data set [2] was “unstable and has converted to Crystal Form VI of the present invention”. In data set [3], the “Morphology (particle shape)” value is “small block-shaped crystals”. In [4], the “crystal form in capsules” value was “unstable and has converted to Crystal Form VI of the present invention”. In addition, the “hygroscopicity (in words)” value in [5] is recorded as “some hygroscopicity”. In [6] (in isopropanol or ethanol), the “Competition test, comparison of stability” value is on record as “Form 1 >The other three crystal forms”. The “Competition test, comparison of stability (position in the rank order)” value (“Competition test … (position in the rank order)” below) in data set [6] is recorded as “>Crystal Form VII of the present”. In data set [7], the “crystal form of API after physical blending with excipients” value is given as “keeps unchanged”, the “crystal form of API in the wet granulation process” value was “partially or totally converted to Crystal Form VI of the present invention” and the “crystal form stability in the wet granulation process or in the suspension” value was “unstable”.

On to `CC(C)(C)c1nc(-c2cccc(NS(=O)(=O)c3c(F)cccc3F)c2F)c(-c2ccnc(N)n2)s1` [Known Crystal Form 2, N-[3-[5-(2-aminopyrimidin-4-yl)-2-(tert-butyl)thiazo-4-lyl]-2-fluorophenyl]-2,6-difluorobenzenesulfonamide, reference compound], for which, in [1], the “crystal form stability in water” value is recorded as “would convert to other form(s)” and the “crystal form stability when stirred” value is reported as “convert to Crystal Form VI of the present invention; also recorded: unstable”. Further, the “crystal form conversion in dichloromethane” value in data set [1] (stirring in dichloromethane followed by filtering and drying) is given as “can convert to the Known Crystal Form 1”. Further, the “crystal form in oral suspension” value in [2] was “unstable and has converted to Crystal Form VI of the present invention”. Moreover, in data set [3], the “Morphology (particle shape)” value is reported as “small block-shaped crystals”. In data set [4], the “crystal form in capsules” value was “unstable and has converted to Crystal Form VI of the present invention”. Moreover, the “Competition test … (position in the rank order)” value in data set [6] is on record as “invention >The Known Crystal Form 2”. For the same compound, in data set [7], the “crystal form of API after physical blending with excipients” value is on record as “keeps unchanged”, the “crystal form of API in the wet granulation process” value is recorded as “partially or totally converted to Crystal Form VI of the present invention” and the “crystal form stability in the wet granulation process or in the suspension” value is “unstable”.

Take `CC(C)(C)c1nc(-c2cccc(NS(=O)(=O)c3c(F)cccc3F)c2F)c(-c2ccnc(N)n2)s1` [Crystal Form VII, N-[3-[5-(2-aminopyrimidin-4-yl)-2-(tert-butyl)thiazo-4-lyl]-2-fluorophenyl]-2,6-difluorobenzenesulfonamide]: the “crystal form stability when stirred” value in data set [1] is “convert to Crystal Form VI of the present invention”. For the same compound, the “particle size compared with known crystal forms” value in [8] is “larger particle size than those of the Known Crystal Form 1 and the Known Crystal Form 2; also recorded: larger than that of the Known Crystal Form 1 and the Known Crystal Form 2”. Further, in [8] (setting [12]), the D10 was 91 μm and the D50 came out at 207 μm. In [9], the flowability result is “good and good flowability”. The “Morphology (particle shape)” value in data set [3] is reported as “rod-shaped crystals; also recorded: good morphology; also recorded: rod-shaped particles in large size; also recorded: Rod shape”. Moreover, the “Storage stability (crystal form by XRPD)” value in data set [10] (stored 3 months in desiccator at room temperature, room temperature-97% RH, -75% RH, -44% RH or oven of 40° C.) was “its crystal form does not change”. Besides, the “Storage stability (crystal form)” value in [10] (stored for a long time in desiccator at room temperature, room temperature-97% RH, -75% RH, -44% RH or oven of 40° C.) is given as “stable when stored for a long time”. In addition, in data set [5], the “hygroscopicity (in words)” value is “low hygroscopicity; also recorded: lower than that of the Known Crystal Form 1”. In addition, the “Competition test … (position in the rank order)” value in [6] is recorded as “more stable than the Known Crystal Form 1; also recorded: >The Known Crystal Form 2”. Besides, the decomposition temperature in data set [11] (TGA, 10° C./min, dry N2) was 270 °C. Moreover, in [11] (conclusion from DSC/TGA test results), the “stability at high temperature (in words)” value is reported as “very stable at high temperature”.

With `CC(C)(C)c1nc(-c2cccc(NS(=O)(=O)c3c(F)cccc3F)c2F)c(-c2ccnc(N)n2)s1` [Known Crystal Form 3, N-[3-[5-(2-aminopyrimidin-4-yl)-2-(tert-butyl)thiazo-4-lyl]-2-fluorophenyl]-2,6-difluorobenzenesulfonamide, reference compound], the “crystal form stability in water” value in data set [1] is recorded as “may convert to other form(s)”. For the same compound, the “crystal form stability on standing” value in data set [10] (placed at room temperature) is listed as “extremely unstable; also recorded: can convert to the Known Crystal Form 1; also recorded: converts to the Known Crystal Form 1”.

The record behind these values is patent publication US9365559B2, “Crystal form of Dabrafenib and preparation method of use thereof” (Hangzhou Pushai Pharmaceutical Technology Co., LTD., priority 2013, dated 2016).
